Columns and labels:
[1] = test system: Plasmodium falciparum; assay: Antimalarial activity against Plasmodium falciparum 3D7 in human erythrocytes after 48hrs by [3H]hypoxanthine uptake; assay type: functional, organism-based
[2] = Selectivity index, ratio of CC50 for human K562 cells to IC50 for Plasmodium falciparum 3D7; assay type: functional
[3] = Selectivity index, ratio of CC50 for human K562 cells to IC50 for Toxoplasma gondii RH-beta1; assay type: functional
[4] = test system: Toxoplasma gondii; assay: Antitoxoplasmal activity against Toxoplasma gondii RH-beta1 in HFF cells assessed as beta-galactosidase activity after 48 to 72 hrs by colorimetric microtiter assay; assay type: functional, organism-based
[5] = (§1) Cytotoxicity against human K562 cells assessed as radioactive thymidine incorporation after 24 hrs; assay type: cell-based; conditions: K562 cells
[6] = test system: Plasmodium falciparum; assay: Antimalarial activity against Plasmodium falciparum K1; assay type: functional, organism-based
[7] = test system: K562; assay: as §1; assay type: cell-based; conditions: k562, 24 h; for CC50: 24 h
[8] = Toxoplasma gondii, RH-beta1, HFF

Q: For CCCCCCCCCCCCC[C@@H]1CC(O)CC2(CCC3(C=CC(=O)C=C3)O2)O1 (single isomer, unassigned; form 2), which IC50 ([1]; Plasmodium falciparum, 3D7) is on record?
A: 335 nM

Q: And the “Selectivity Index” value [2]?
A: 35

Q: And the “Selectivity Index” value [3]?
A: 35

Q: What about the IC50 ([4]; hff) of the same compound?
A: 436 nM

Q: What about the CC50 at 24 h [5] of the same compound?
A: 25800 nM

Q: Which results are given for CCCCCCCCCCCCC[C@@H]1C[C@@H](O)C[C@]2(CCC3(C=CC(=O)C=C3)O2)O1 [ACULEATIN A]?
A: IC50 [1]: 478 nM; IC50 [6]: 1000 nM; IC50 ([4]; hff): 640 nM; CC50 [7]: 28000 nM

Q: For CCCCCCC(=O)OC1C[C@]2(CCC3(C=CC(=O)C=C3)O2)O[C@]2(CCC3(C=CC(=O)C=C3)O2)C1 (some centres undefined), which IC50 ([1]; Plasmodium falciparum, 3D7) is on record?
A: 331 nM

Q: And the “Selectivity Index” value [3]?
A: 35

Q: And the CC50 at 24 h [5]?
A: < 380 nM

Q: Which IC50 ([1]; Plasmodium falciparum, 3D7) does the source give for CCCCCCCCCCCCC[C@H]1C[C@@H](O)C[C@]2(CCC3(C=CC(=O)C=C3)O2)O1 [(+)-ACULEATIN B] here?
A: 454 nM

Q: And the “Selectivity Index” value [2]?
A: 35

Q: What about the “Selectivity Index” value [3] of the same compound?
A: 35

Q: And the IC50 [6]?
A: 430 nM

Q: What about the IC50 [4, 8] of the same compound?
A: 365 nM

Q: And the CC50 at 24 h [5]?
A: 27500 nM

Q: What does the source list for CCCCCCCCCCCCCC(=O)OC1C[C@]2(CCC3(C=CC(=O)C=C3)O2)O[C@]2(CCC3(C=CC(=O)C=C3)O2)C1 (some centres undefined)?
A: IC50 ([1]; Plasmodium falciparum, 3D7): 92 nM; Selectivity Index [2]: 123; IC50 [4, 8]: 636 nM; CC50 at 24 h [5]: 11300 nM

Q: For CCCCCCCCCCOC(=O)C[C@H]1C[C@H](O)C[C@@]2(CCC3(C=CC(=O)C=C3)O2)O1 (stereo in doubt), which IC50 ([1]; Plasmodium falciparum, 3D7) is on record?
A: 654 nM

Q: What about the “Selectivity Index” value [2] of the same compound?
A: 35

Q: And the “Selectivity Index” value [3]?
A: 35

Q: And the IC50 [4, 8]?
A: 341 nM

Q: What about the CC50 at 24 h [5] of the same compound?
A: 28200 nM

Q: Which IC50 [1] does the source give for CCCCCCCCCCCCC[C@@H]1C[C@H](O)C[C@@]2(CCC3(C=CC(=O)C=C3)O2)O1 here?
A: 288 nM

Q: And the IC50 [6]?
A: 180 nM

Q: And the IC50 [4, 8]?
A: 309 nM

Q: What about the CC50 [7] of the same compound?
A: 25500 nM

Q: For CCCCCCCCCCCCCCCCCCOC(=O)C[C@H]1C[C@H](O)C[C@@]2(CCC3(C=CC(=O)C=C3)O2)O1 (racemic), which IC50 ([1]; Plasmodium falciparum, 3D7) is on record?
A: 770 nM

Q: And the “Selectivity Index” value [2]?
A: 35

Q: And the “Selectivity Index” value [3]?
A: 35

Q: What about the IC50 [4, 8] of the same compound?
A: 2400 nM

Q: What about the CC50 at 24 h [5] of the same compound?
A: 13900 nM

Q: Which IC50 ([1]; Plasmodium falciparum, 3D7) does the source give for CCCCCCCCCCCCC[C@@H]1C[C@@H](O)C[C@]2(CCC3(CCC(=O)CC3)O2)O1 (racemic) here?
A: > 5000 nM

Q: And the “Selectivity Index” value [3]?
A: 35

Q: What about the IC50 [4, 8] of the same compound?
A: 11000 nM

Q: What about the CC50 at 24 h [5] of the same compound?
A: 25600 nM

Q: Which CC50 at 24 h [5] does the source give for CCN(CC)CCCC(C)Nc1ccnc2cc(Cl)ccc12 (centres undefined) [CHLOROQUINE] here?
A: 9700 nM

Q: For CCCCCCCCCCCCC[C@@H](O)C[C@@H](O)CC(=O)CCc1ccc(O)cc1, which IC50 ([1]; Plasmodium falciparum, 3D7) is on record?
A: > 10000 nM

Q: And the “Selectivity Index” value [2]?
A: 35

Q: And the CC50 at 24 h [5]?
A: 34500 nM

Q: What does the source list for CCCCCCCCCCCCCC1C[C@H](O)CC2(CCC3(C=CC(=O)C=C3)O2)O1 (single isomer, unassigned)?
A: IC50 ([1]; Plasmodium falciparum, 3D7): 329 nM; Selectivity Index [2]: 35; IC50 [4, 8]: 627 nM; CC50 at 24 h [5]: 22100 nM

Q: With O=C1C=CC2(C=C1)CC[C@]1(CC(O)C[C@]3(CCC4(C=CC(=O)C=C4)O3)O1)O2 (some centres undefined) as the compound, how does the IC50 ([1]; Plasmodium falciparum, 3D7) read?
A: 584 nM

Q: And the “Selectivity Index” value [3]?
A: 35

Q: And the IC50 [4, 8]?
A: 1500 nM

Q: What about the Activity [7] of the same compound?
A: Toxic

Q: With CCCCCCCCCCOC(=O)C[C@@H]1C[C@@H](O)C[C@]2(CCC3(C=CC(=O)C=C3)O2)O1 (stereo in doubt) as the compound, how does the IC50 ([1]; Plasmodium falciparum, 3D7) read?
A: 1360 nM

Q: What about the “Selectivity Index” value [2] of the same compound?
A: 35

Q: And the IC50 [4, 8]?
A: 1630 nM

Q: And the CC50 at 24 h [5]?
A: 41200 nM

Q: With CCCCCCC(=O)O[C@@H]1C[C@]2(CCC3(C=CC(=O)C=C3)O2)O[C@]2(CCC3(C=CC(=O)C=C3)O2)C1 as the compound, how does the IC50 ([1]; Plasmodium falciparum, 3D7) read?
A: 343 nM

Q: What about the “Selectivity Index” value [2] of the same compound?
A: 35

Q: What about the “Selectivity Index” value [3] of the same compound?
A: 35

Q: And the CC50 at 24 h [5]?
A: < 380 nM

Q: Which results are given for CCCCCCCCCCCCC[C@@H]1CC(O)CC2(CCC3(C=CC(=O)C=C3)O2)O1 (single isomer, unassigned; form 3) [ACULEATINS B]?
A: IC50 ([1]; Plasmodium falciparum, 3D7): 366 nM; Selectivity Index [2]: 35; Selectivity Index [3]: 35; IC50 [4, 8]: 400 nM; CC50 at 24 h [5]: 30800 nM

Q: What does the source list for CCCCCCCCCCCCCCCCCCOC(=O)C[C@H]1C[C@@H](O)C[C@@]2(CCC3(C=CC(=O)C=C3)O2)O1 (racemic)?
A: IC50 ([1]; Plasmodium falciparum, 3D7): 1030 nM; Selectivity Index [2]: 35; Selectivity Index [3]: 35; IC50 [4, 8]: 3540 nM; CC50 at 24 h [5]: 17500 nM

Q: With CCCOC(=O)C[C@H]1C[C@H](O)C[C@@]2(CCC3(C=CC(=O)C=C3)O2)O1 (racemic) as the compound, how does the IC50 ([1]; Plasmodium falciparum, 3D7) read?
A: 1840 nM

Q: And the “Selectivity Index” value [3]?
A: 219

Q: And the IC50 [4, 8]?
A: 500 nM

Q: And the CC50 at 24 h [5]?
A: 109000 nM

Q: With CCCCCCCCCCCCC[C@@H]1CC(O)CC2(CCC3(C=CC(=O)C=C3)O2)O1 (single isomer, unassigned; form 1) [ACULEATINS B] as the compound, how does the IC50 [1] read?
A: 451 nM

Q: What about the IC50 ([4]; hff) of the same compound?
A: 377 nM

Q: And the CC50 [7]?
A: 30200 nM

Q: With CCCCCCCCCCCCCCCCCCOC(=O)C[C@H]1C[C@@H](O)C[C@]2(CCC3(C=CC(=O)C=C3)O2)O1 (racemic) as the compound, how does the IC50 ([1]; Plasmodium falciparum, 3D7) read?
A: 1130 nM

Q: And the “Selectivity Index” value [2]?
A: 35

Q: And the “Selectivity Index” value [3]?
A: 35

Q: And the IC50 [4, 8]?
A: 3520 nM

Q: And the CC50 at 24 h [5]?
A: 15600 nM

Q: With CCCCCCCCCCC(CCCCCCCCCC)OC(=O)C[C@H]1C[C@H](O)C[C@@]2(CCC3(C=CC(=O)C=C3)O2)O1 (racemic) as the compound, how does the IC50 ([1]; Plasmodium falciparum, 3D7) read?
A: 1150 nM

Q: What about the “Selectivity Index” value [2] of the same compound?
A: 35

Q: What about the “Selectivity Index” value [3] of the same compound?
A: 35

Q: What about the IC50 [4, 8] of the same compound?
A: 4450 nM

Q: And the CC50 at 24 h [5]?
A: 22100 nM

Q: For CCCCCCCCCCCCCC(=O)O[C@@H]1C[C@]2(CCC3(C=CC(=O)C=C3)O2)O[C@]2(CCC3(C=CC(=O)C=C3)O2)C1, which IC50 ([1]; Plasmodium falciparum, 3D7) is on record?
A: 81 nM

Q: What about the “Selectivity Index” value [2] of the same compound?
A: 109

Q: What about the IC50 [4, 8] of the same compound?
A: 346 nM

Q: And the CC50 at 24 h [5]?
A: 8750 nM

Q: Which results are given for O=C1C=CC2(C=C1)CC[C@]1(C[C@@H](O)C[C@@]3(CCC4(C=CC(=O)C=C4)O3)O1)O2?
A: IC50 ([1]; Plasmodium falciparum, 3D7): 414 nM; Selectivity Index [2]: 35; Selectivity Index [3]: 35; IC50 [4, 8]: 173 nM; CC50 at 24 h [5]: 390 nM

Q: What does the source list for CCCCCCCCCCCCCC(=O)CC(=O)O[C@@H]1C[C@]2(CCC3(C=CC(=O)C=C3)O2)O[C@]2(CCC3(C=CC(=O)C=C3)O2)C1?
A: IC50 ([1]; Plasmodium falciparum, 3D7): 120 nM; Selectivity Index [2]: 35; Selectivity Index [3]: 35; CC50 at 24 h [5]: < 380 nM

Q: Which IC50 [1] does the source give for CCCCCCCCCCCCCC1C[C@@H](O)CC2(CCC3(C=CC(=O)C=C3)O2)O1 (single isomer, unassigned) [ACULEATIN A] here?
A: 220 nM

Q: And the “Selectivity Index” value [2]?
A: 35

Q: What about the “Selectivity Index” value [3] of the same compound?
A: 35

Q: And the IC50 [4, 8]?
A: 436 nM

Q: What about the CC50 at 24 h [5] of the same compound?
A: 26700 nM

Q: Which IC50 ([1]; Plasmodium falciparum, 3D7) does the source give for CCCCCCN(CCCCCC)C(=O)C[C@H]1C[C@H](O)C[C@@]2(CCC3(C=CC(=O)C=C3)O2)O1 (racemic) here?
A: 899 nM

Q: What about the “Selectivity Index” value [2] of the same compound?
A: 35

Q: What about the “Selectivity Index” value [3] of the same compound?
A: 35

Q: What about the CC50 at 24 h [5] of the same compound?
A: 390 nM

From ChEMBL document CHEMBL1156632, “Enhanced antimalarial activity of novel synthetic aculeatin derivatives” (J Med Chem, 2008)
